Reference: ChEMBL document CHEMBL5029185, “Discovery of Novel Polycyclic Heterocyclic Derivatives from Evodiamine for the Potential Treatment of Triple-Negative Breast Cancer” (J Med Chem, 2021)
Activity calls are given as the source filed them. The calls are words filed in the database; no cut-off is given here.

Experiments:
MDA-MB-231 [1] = assay: Antiproliferative activity against human MDA-MB-231 cells assessed as inhibition rate at 100 uM incubated for 72 hrs by MTT assay; type: functional
MDA-MB-231 [2] = assay: Antiproliferative activity against human MDA-MB-231 cells assessed as inhibition rate at 1 uM incubated for 72 hrs by MTT assay; type: functional
MDA-MB-435 = assay: Antiproliferative activity against human MDA-MB-435 cells assessed as inhibition rate incubated for 72 hrs by MTT assay; type: functional, cell-based; conditions: MDA-MB-435, 72 h
HCT-116 = assay: Antiproliferative activity against human HCT-116 cells assessed as inhibition rate incubated for 72 hrs by MTT assay; type: functional, cell-based; conditions: HCT-116, 72 h
4T1 = assay: Antiproliferative activity against mouse 4T1 cells assessed as inhibition rate incubated for 72 hrs by MTT assay; type: functional, cell-based; conditions: 4T1, 72 h
H22 = assay: Antiproliferative activity against mouse H22 cells assessed as inhibition rate incubated for 72 hrs by MTT assay; type: functional, cell-based; conditions: H22, 72 h
[3] = target: T1, DNA topoisomerase 1 (Homo sapiens) (UniProt P11387); assay: Inhibition of topoisomerase 1 (unknown origin) assessed as relaxation of supercoiled plasmid pBR322 DNA at 50 uM incubated for 15 mins by agarose gel electrophoresis
T1 sequence (whole entry): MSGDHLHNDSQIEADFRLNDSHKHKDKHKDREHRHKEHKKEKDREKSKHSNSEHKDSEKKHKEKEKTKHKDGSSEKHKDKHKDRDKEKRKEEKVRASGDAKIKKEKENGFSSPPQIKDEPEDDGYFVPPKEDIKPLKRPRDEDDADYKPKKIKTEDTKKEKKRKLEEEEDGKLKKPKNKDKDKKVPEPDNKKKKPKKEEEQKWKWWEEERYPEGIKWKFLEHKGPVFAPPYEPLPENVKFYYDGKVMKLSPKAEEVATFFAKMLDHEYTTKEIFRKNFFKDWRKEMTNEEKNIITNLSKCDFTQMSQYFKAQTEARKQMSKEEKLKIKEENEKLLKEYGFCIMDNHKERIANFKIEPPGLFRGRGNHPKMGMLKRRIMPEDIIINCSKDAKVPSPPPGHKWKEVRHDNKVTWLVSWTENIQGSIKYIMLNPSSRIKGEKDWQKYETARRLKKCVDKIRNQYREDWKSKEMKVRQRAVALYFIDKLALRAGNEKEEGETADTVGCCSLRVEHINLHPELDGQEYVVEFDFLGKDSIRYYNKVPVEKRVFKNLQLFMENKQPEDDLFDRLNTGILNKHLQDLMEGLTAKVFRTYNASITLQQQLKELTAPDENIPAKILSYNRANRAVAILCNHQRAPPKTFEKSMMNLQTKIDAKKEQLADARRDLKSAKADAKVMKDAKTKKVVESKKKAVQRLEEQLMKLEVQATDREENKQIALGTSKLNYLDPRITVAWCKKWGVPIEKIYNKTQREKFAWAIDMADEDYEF

[4] = target: T1, DNA topoisomerase 1 (Homo sapiens); assay: Inhibition of topoisomerase 1 (unknown origin) assessed as relaxation of supercoiled plasmid pBR322 DNA at 20 uM incubated for 15 mins by agarose gel electrophoresis
[5] = target: DNA topoisomerase 2-alpha (Homo sapiens) (UniProt P11388); assay: Inhibition of topoisomerase 2 (unknown origin) assessed as relaxation of supercoiled kDNA at 100 to 500 uM incubated for 30 mins by agarose gel electrophoresis; conditions: dose 100-500 µM
MDA-MB-231 [6] = assay: Induction of ROS generation in human MDA-MB-231 cells by fluorescent dye […] based flow cytometry; type: functional, cell-based
MDA-MB-231 [7] = assay: Induction of ROS generation in human MDA-MB-231 cells transfected with siRNA-Top1 by fluorescent dye […] based flow cytometry; type: functional, cell-based
MDA-MB-231 [8] = assay: Induction of DNA damage in human MDA-MB-231 cells assessed as ROS-mediated oxidative DNA lesions at 0.4 uM measured after 12 hrs by alkaline comet assay; type: functional, cell-based
MDA-MB-231 [9] = assay: Induction of mitochondrial membrane disruption in human MDA-MB-231 cells assessed as mitochondrial dysfunction at 0.4 uM measured after 48 hrs by JC-1 staining based flow cytometry (reference value: 3%); type: functional
MDA-MB-231 [10] = assay: Induction of apoptosis in human MDA-MB-231 cells assessed as increase in cytochrome c expression at 0.1 to 0.4 uM measured after 48 hrs by Western blot analysis; type: functional, cell-based; conditions: dose 0.1-0.4 µM
MDA-MB-231 [11] = assay: Induction of apoptosis in human MDA-MB-231 cells assessed as increase in cleaved caspase-3 expression at 0.1 to 0.4 uM measured after 48 hrs by Western blot analysis; type: functional, cell-based; conditions: dose 0.1-0.4 µM
MDA-MB-231 [12] = assay: Induction cell cycle arrest in human MDA-MB-231 cells assessed as accumulation at G2 phase at 0.1 uM measured after 48 hrs by PI staining based flow cytometry (reference value: 10.2%); type: functional
MDA-MB-231 [13] = assay: Induction cell cycle arrest in human MDA-MB-231 cells assessed as accumulation at S phase at 0.1 uM measured after 48 hrs by PI staining based flow cytometry (reference value: 36%); type: functional
MDA-MB-231 [14] = assay: Induction cell cycle arrest in human MDA-MB-231 cells assessed as accumulation at G2 phase at 0.2 uM measured after 48 hrs by PI staining based flow cytometry (reference value: 10.2%); type: functional
MDA-MB-231 [15] = assay: Induction cell cycle arrest in human MDA-MB-231 cells assessed as accumulation at S phase at 0.2 uM measured after 48 hrs by PI staining based flow cytometry (reference value: 36%); type: functional
MDA-MB-231 [16] = assay: Induction cell cycle arrest in human MDA-MB-231 cells assessed as accumulation at G1 phase at 0.4 uM measured after 48 hrs by PI staining based flow cytometry (reference value: 53.7%); type: functional
MDA-MB-231 [17] = assay: Induction cell cycle arrest in human MDA-MB-231 cells assessed as accumulation at S phase at 0.4 uM measured after 48 hrs by PI staining based flow cytometry (reference value: 36%); type: functional
MDA-MB-231 [18] = assay: Induction cell cycle arrest in human MDA-MB-231 cells assessed as increase in p21 expression at 0.4 uM measured after 48 hrs by Western blot analysis; type: functional, cell-based
MDA-MB-231 [19] = assay: Induction cell cycle arrest in human MDA-MB-231 cells assessed as increase in CDK2 expression at 0.4 uM measured after 48 hrs by Western blot analysis; type: functional, cell-based
MDA-MB-231 [20] = assay: Effect on PI3K expression in human MDA-MB-231 cells at 0.4 uM measured after 48 hrs by Western blot analysis; type: functional, cell-based
MDA-MB-231 [21] = assay: Effect on Akt expression in human MDA-MB-231 cells at 0.4 uM measured after 48 hrs by Western blot analysis; type: functional, cell-based
MCF-10A = assay: cells; type: ADME, cell-based; conditions: Homo sapiens, 72 h
Description: Antiproliferative activity against human MCF-10A cells assessed as inhibition rate incubated for 72 hrs by MTT assay

Breast carcinoma cell = assay: Antitumour activity against human TNBC breast carcinoma cell tissue xenografted PDTX SCID mouse model assessed as tumor cell necrosis […] at 5 to 20 mg/kg treated for 7 days; type: functional, organism-based; conditions: dose 5-20 mg/kg, time 7.0 day
[22] = Toxicity in PDTX SCID mouse model at 5 to 20 mg/kg measured upto 7 days; type: organism-based; conditions: in vivo, 168 h, dose 5-20 mg/kg, time <=7 day

DNA topoisomerase 2-alpha (Homo sapiens), sequence (P11388 whole entry): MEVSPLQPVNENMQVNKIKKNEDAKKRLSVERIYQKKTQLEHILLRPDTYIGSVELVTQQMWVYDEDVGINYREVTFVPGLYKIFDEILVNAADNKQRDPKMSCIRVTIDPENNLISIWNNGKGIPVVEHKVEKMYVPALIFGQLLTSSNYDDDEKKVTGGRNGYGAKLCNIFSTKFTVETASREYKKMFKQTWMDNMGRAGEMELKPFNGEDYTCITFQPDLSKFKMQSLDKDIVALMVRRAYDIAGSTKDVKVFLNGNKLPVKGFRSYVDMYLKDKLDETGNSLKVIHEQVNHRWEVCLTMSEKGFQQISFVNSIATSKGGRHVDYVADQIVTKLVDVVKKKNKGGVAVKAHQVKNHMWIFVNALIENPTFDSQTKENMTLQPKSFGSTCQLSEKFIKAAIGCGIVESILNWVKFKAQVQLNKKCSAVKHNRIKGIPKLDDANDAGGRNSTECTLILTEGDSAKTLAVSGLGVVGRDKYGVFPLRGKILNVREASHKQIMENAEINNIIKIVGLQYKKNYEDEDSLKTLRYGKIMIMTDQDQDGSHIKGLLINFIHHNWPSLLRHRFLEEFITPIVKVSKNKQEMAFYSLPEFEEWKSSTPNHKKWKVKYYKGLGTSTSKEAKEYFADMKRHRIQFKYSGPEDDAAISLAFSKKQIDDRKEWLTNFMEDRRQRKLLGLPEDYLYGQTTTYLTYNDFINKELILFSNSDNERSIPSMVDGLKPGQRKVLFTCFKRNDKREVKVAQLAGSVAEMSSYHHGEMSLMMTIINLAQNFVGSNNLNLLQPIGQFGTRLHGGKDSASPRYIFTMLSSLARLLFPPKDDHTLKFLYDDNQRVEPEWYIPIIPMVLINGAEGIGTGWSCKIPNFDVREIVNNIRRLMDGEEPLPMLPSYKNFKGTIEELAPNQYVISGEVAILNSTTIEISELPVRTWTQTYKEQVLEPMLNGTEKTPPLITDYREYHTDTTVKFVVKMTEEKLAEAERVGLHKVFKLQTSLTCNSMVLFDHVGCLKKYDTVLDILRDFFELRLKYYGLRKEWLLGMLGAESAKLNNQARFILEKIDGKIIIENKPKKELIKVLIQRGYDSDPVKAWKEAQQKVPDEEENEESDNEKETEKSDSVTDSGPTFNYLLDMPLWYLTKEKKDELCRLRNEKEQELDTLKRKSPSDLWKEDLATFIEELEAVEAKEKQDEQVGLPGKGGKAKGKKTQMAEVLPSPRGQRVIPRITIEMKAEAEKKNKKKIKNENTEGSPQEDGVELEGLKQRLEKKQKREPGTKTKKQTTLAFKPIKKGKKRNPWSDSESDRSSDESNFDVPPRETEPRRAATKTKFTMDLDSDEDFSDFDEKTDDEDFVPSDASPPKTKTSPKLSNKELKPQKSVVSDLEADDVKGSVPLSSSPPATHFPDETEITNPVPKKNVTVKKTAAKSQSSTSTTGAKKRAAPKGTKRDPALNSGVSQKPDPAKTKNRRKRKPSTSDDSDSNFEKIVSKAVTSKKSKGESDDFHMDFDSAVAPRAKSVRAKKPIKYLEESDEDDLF

Which inhibition at 100 µM (MDA-MB-231 [1]) does the source give for `O=C1c2cc(Cl)ccc2OC2c3oc4ccc(O)cc4c3CCN12` (stereo not drawn) here?
Its inhibition at 100 µM is 95.8%.

And the inhibition at 1 µM (MDA-MB-231 [2])?
The inhibition at 1 µM was 82.4%.

What about the IC50 (MDA-MB-435) of the same compound?
The IC50 was 420 nM.

What about the IC50 (HCT-116) of the same compound?
The IC50 was 760 nM.

And the IC50 (4T1)?
Its IC50 is 730 nM.

And the IC50 (H22)?
Its IC50 is 1020 nM.

And the inhibition [3]?
The inhibition was “Active”.

What about the inhibition [4] of the same compound?
Its inhibition is “Active”.

What about the inhibition [5] of the same compound?
The inhibition was “inactive”.

And the Activity (MDA-MB-231 [6])?
The Activity was “Active”.

And the Activity (MDA-MB-231 [7])?
Its Activity is “Active”.

What about the Activity (MDA-MB-231 [8]) of the same compound?
Its Activity is “Active”.

And the Activity (MDA-MB-231 [9])?
The Activity was 25%.

What about the Activity (MDA-MB-231 [10]) of the same compound?
Its Activity is “Active”.

What about the Activity (MDA-MB-231 [11]) of the same compound?
The Activity was “Active”.

What about the Activity (MDA-MB-231 [12]) of the same compound?
The Activity was 7.2%.

And the Activity (MDA-MB-231 [13])?
The Activity was 24.7%.

What about the Activity (MDA-MB-231 [14]) of the same compound?
The Activity was 5.3%.

What about the Activity (MDA-MB-231 [15]) of the same compound?
Its Activity is 22.4%.

What about the Activity (MDA-MB-231 [16]) of the same compound?
Its Activity is 70.2%.

What about the Activity (MDA-MB-231 [17]) of the same compound?
The Activity was 22.9%.

What about the Activity (MDA-MB-231 [18]) of the same compound?
The Activity was “Active”.

What about the Activity (MDA-MB-231 [19]) of the same compound?
Its Activity is “Active”.

What about the Activity (MDA-MB-231 [20]) of the same compound?
Its Activity is “inactive”.

And the Activity (MDA-MB-231 [21])?
Its Activity is “inactive”.

And the IC50 (MCF-10A)?
Its IC50 is 6760 nM.

What about the Activity (Breast carcinoma cell) of the same compound?
Its Activity is “Active”.

And the Activity [22]?
Its Activity is “Non-Toxic”.
